Results as given in ChEMBL document CHEMBL1955827, “Influence of ring size on the cognition-enhancing activity of DM235 and MN19, two potent nootropic drugs” (Bioorg Med Chem Lett, 2012).
Calls of active or inactive are those of the source. No cut-off for these calls is given here.

test system: Mus musculus; experiment: Nootropic activity against scopolamine-induced amnesia in mouse assessed as increase in latency period to enter dark room up to 10 mg/kg, ip administered 20 mins prior to test by passive avoidance test (reference value: 91.7 sec); type: functional, organism-based; set-up: dose 10 mg/kg; settings: not given

Row | Compound | Activity
1 | CCC(=O)N1CCCN(S(=O)(=O)c2ccc(F)cc2)CCC1 | inactive
2 | CC(=O)NC1CCCN(C(=O)c2ccccc2)CC1 (configuration not stated) | inactive
3 | CC(=O)N1CCC(NS(=O)(=O)c2ccc(F)cc2)C1 (configuration not stated) | inactive
4 | CCC(=O)N1CCC(NS(=O)(=O)c2ccc(F)cc2)C1 (configuration not stated) | inactive
5 | CC(=O)NC1CCCN(S(=O)(=O)c2ccc(F)cc2)CC1 (configuration not stated) | inactive
6 | CC(=O)NC1CCCN(C(=O)c2ccccc2)CCC1 | inactive

test system: Mus musculus; experiment: Neurotoxicity in mouse assessed as effect on inspection activity at 10 mg/kg, ip by hole-board test; type: toxicity, organism-based; set-up: dose 10 mg/kg, route intraperitoneal; settings: in vivo

Row | Compound | Activity
7 | CC(=O)NC1CCN(C(=O)c2ccccc2)C1 (configuration not stated) | Non-toxic
8 | CCC(=O)N[C@@H]1CCN(S(=O)(=O)c2ccc(F)cc2)C1 | Non-toxic
9 | CCC(=O)NC1CCCN(S(=O)(=O)c2ccc(F)cc2)CCC1 | Non-toxic
10 | CCC(=O)NC1CCCN(S(=O)(=O)c2ccc(F)cc2)CC1 (configuration not stated) | Non-toxic
11 | CCC(=O)NC1CN(S(=O)(=O)c2ccc(F)cc2)C1 | Non-toxic

test system: Mus musculus; experiment: Neurotoxicity in mouse assessed as effect on gross behaviour at 0.001 mg/kg, ip by rotarod test; type: toxicity, organism-based; set-up: dose 0.001 mg/kg, route intraperitoneal; settings: in vivo

Row | Compound | Activity
12 | CCC(=O)N1CCN(C(=O)c2ccccc2)CC1 [SUNIFIRAM] | Non-toxic

test system: Mus musculus; experiment: Neurotoxicity in mouse assessed as effect on spontaneous motility at 0.01 mg/kg, ip by hole-board test; type: toxicity, organism-based; set-up: dose 0.01 mg/kg, route intraperitoneal; settings: in vivo

Row | Compound | Activity
13 | CC(=O)NC1CCN(S(=O)(=O)c2ccc(F)cc2)CC1 [SAPUNIFIRAM] | Non-toxic

test system: Mus musculus; experiment: Neurotoxicity in mouse assessed as effect on spontaneous motility at 0.1 mg/kg, ip by hole-board test; type: toxicity, organism-based; set-up: dose 0.1 mg/kg, route intraperitoneal; settings: in vivo

Row | Compound | Activity
14 | CCC(=O)NC1CCN(S(=O)(=O)c2ccc(F)cc2)C1 (configuration not stated) | Non-toxic

test system: Mus musculus; experiment: Neurotoxicity in mouse assessed as effect on inspection activity at 30 mg/kg, ip by hole-board test; type: toxicity, organism-based; set-up: dose 30 mg/kg, route intraperitoneal; settings: in vivo

Row | Compound | Activity
15 | NC(=O)CN1CCCC1=O [PIRACETAM] | Non-toxic

test system: Mus musculus; experiment: Neurotoxicity in mouse assessed as effect on spontaneous motility at 10 mg/kg, ip by hole-board test; type: toxicity, organism-based; set-up: dose 10 mg/kg, route intraperitoneal; settings: in vivo

Row | Compound | Activity
16 | CC(=O)NC1CCN(C(=O)c2ccccc2)C1 (configuration not stated) | Non-toxic
17 | CCC(=O)N[C@@H]1CCN(S(=O)(=O)c2ccc(F)cc2)C1 | Non-toxic
18 | CCC(=O)NC1CCCN(S(=O)(=O)c2ccc(F)cc2)CCC1 | Non-toxic
19 | CCC(=O)NC1CCCN(S(=O)(=O)c2ccc(F)cc2)CC1 (configuration not stated) | Non-toxic
20 | CCC(=O)NC1CN(S(=O)(=O)c2ccc(F)cc2)C1 | Non-toxic

test system: Mus musculus; experiment: Neurotoxicity in mouse assessed as effect on motor coordination at 30 mg/kg, ip by rotarod test; type: toxicity, organism-based; set-up: dose 30 mg/kg, route intraperitoneal; settings: in vivo

Row | Compound | Activity
21 | NC(=O)CN1CCCC1=O [PIRACETAM] | Non-toxic

test system: Mus musculus; experiment: Neurotoxicity in mouse assessed as effect on spontaneous motility at 0.001 mg/kg, ip by hole-board test; type: toxicity, organism-based; set-up: dose 0.001 mg/kg, route intraperitoneal; settings: in vivo

Row | Compound | Activity
22 | CCC(=O)N1CCN(C(=O)c2ccccc2)CC1 [SUNIFIRAM] | Non-toxic

test system: Mus musculus; experiment: Nootropic activity against scopolamine-induced amnesia in mouse assessed as increase in latency time to enter dark room at 1 mg/kg, ip administered 20 mins prior to test by passive avoidance test (reference value: 91.7 sec); type: functional; settings: route intraperitoneal

Row | Compound | Time [s]
23 | CC(=O)NC1CCCN(S(=O)(=O)c2ccc(F)cc2)CC1 (configuration not stated) | 62.7

test system: Mus musculus; experiment: Neurotoxicity in mouse assessed as effect on gross behavior at 30 mg/kg, ip by rota-rod test; type: toxicity, organism-based; set-up: dose 30 mg/kg, route intraperitoneal; settings: in vivo

Row | Compound | Activity
24 | NC(=O)CN1CCCC1=O [PIRACETAM] | Non-toxic

test system: Mus musculus; experiment: Neurotoxicity in mouse assessed as effect on gross behavior at 0.1 mg/kg, ip by rota-rod test; type: toxicity, organism-based; set-up: dose 0.1 mg/kg, route intraperitoneal; settings: in vivo

Row | Compound | Activity
25 | CCC(=O)NC1CCN(S(=O)(=O)c2ccc(F)cc2)C1 (configuration not stated) | Non-toxic

test system: Mus musculus; experiment: Nootropic activity against scopolamine-induced amnesia in mouse assessed as increase in latency time to enter dark room at 0.001 mg/kg, ip administered 20 mins prior to test by passive avoidance test (reference value: 91.7 sec); type: functional; settings: route intraperitoneal

Row | Compound | Time [s]
26 | CCC(=O)N1CCN(C(=O)c2ccccc2)CC1 [SUNIFIRAM] | 71

test system: Mus musculus; experiment: Neurotoxicity in mouse assessed as effect on spontaneous motility at 30 mg/kg, ip by hole-board test; type: toxicity, organism-based; set-up: dose 30 mg/kg, route intraperitoneal; settings: in vivo

Row | Compound | Activity
27 | NC(=O)CN1CCCC1=O [PIRACETAM] | Non-toxic

test system: Mus musculus; experiment: Neurotoxicity in mouse assessed as effect on motor coordination at 0.1 mg/kg, ip by rotarod test; type: toxicity, organism-based; set-up: dose 0.1 mg/kg, route intraperitoneal; settings: in vivo

Row | Compound | Activity
28 | CCC(=O)NC1CCN(S(=O)(=O)c2ccc(F)cc2)C1 (configuration not stated) | Non-toxic

test system: Mus musculus; experiment: Neurotoxicity in mouse assessed as effect on gross behavior at 0.01 mg/kg, ip by rota-rod test; type: toxicity, organism-based; set-up: dose 0.01 mg/kg, route intraperitoneal; settings: in vivo

Row | Compound | Activity
29 | CC(=O)NC1CCN(S(=O)(=O)c2ccc(F)cc2)CC1 [SAPUNIFIRAM] | Non-toxic

test system: Mus musculus; experiment: Neurotoxicity in mouse assessed as effect on inspection activity at 0.001 mg/kg, ip by hole-board test; type: toxicity, organism-based; set-up: dose 0.001 mg/kg, route intraperitoneal; settings: in vivo

Row | Compound | Activity
30 | CCC(=O)N1CCN(C(=O)c2ccccc2)CC1 [SUNIFIRAM] | Non-toxic

test system: Mus musculus; experiment: Neurotoxicity in mouse assessed as effect on inspection activity at 0.1 mg/kg, ip by hole-board test; type: toxicity, organism-based; set-up: dose 0.1 mg/kg, route intraperitoneal; settings: in vivo

Row | Compound | Activity
31 | CCC(=O)NC1CCN(S(=O)(=O)c2ccc(F)cc2)C1 (configuration not stated) | Non-toxic

test system: Mus musculus; experiment: Neurotoxicity in mouse assessed as effect on motor coordination at 0.001 mg/kg, ip by rotarod test; type: toxicity, organism-based; set-up: dose 0.001 mg/kg, route intraperitoneal; settings: in vivo

Row | Compound | Activity
32 | CCC(=O)N1CCN(C(=O)c2ccccc2)CC1 [SUNIFIRAM] | Non-toxic

test system: Mus musculus; experiment: Neurotoxicity in mouse assessed as effect on inspection activity at 0.01 mg/kg, ip by hole-board test; type: toxicity, organism-based; set-up: dose 0.01 mg/kg, route intraperitoneal; settings: in vivo

Row | Compound | Activity
33 | CC(=O)NC1CCN(S(=O)(=O)c2ccc(F)cc2)CC1 [SAPUNIFIRAM] | Non-toxic

test system: Mus musculus; experiment: Nootropic activity against scopolamine-induced amnesia in mouse assessed as increase in latency time to enter dark room at 0.01 mg/kg, ip administered 20 mins prior to test by passive avoidance test (reference value: 91.7 sec); type: functional; settings: route intraperitoneal

Row | Compound | Time [s]
34 | CC(=O)NC1CCN(S(=O)(=O)c2ccc(F)cc2)CC1 [SAPUNIFIRAM] | 76.1

test system: Mus musculus; experiment: Neurotoxicity in mouse assessed as effect on motor coordination at 0.01 mg/kg, ip by rotarod test; type: toxicity, organism-based; set-up: dose 0.01 mg/kg, route intraperitoneal; settings: in vivo

Row | Compound | Activity
35 | CC(=O)NC1CCN(S(=O)(=O)c2ccc(F)cc2)CC1 [SAPUNIFIRAM] | Non-toxic

test system: Mus musculus; experiment: Neurotoxicity in mouse assessed as effect on gross behaviour at 10 mg/kg, ip by rotarod test; type: toxicity, organism-based; set-up: dose 10 mg/kg, route intraperitoneal; settings: in vivo

Row | Compound | Activity
36 | CC(=O)NC1CCN(C(=O)c2ccccc2)C1 (configuration not stated) | Non-toxic
37 | CCC(=O)N[C@@H]1CCN(S(=O)(=O)c2ccc(F)cc2)C1 | Non-toxic
38 | CCC(=O)NC1CCCN(S(=O)(=O)c2ccc(F)cc2)CCC1 | Non-toxic
39 | CCC(=O)NC1CCCN(S(=O)(=O)c2ccc(F)cc2)CC1 (configuration not stated) | Non-toxic
40 | CCC(=O)NC1CN(S(=O)(=O)c2ccc(F)cc2)C1 | Non-toxic

test system: Mus musculus; experiment: Neurotoxicity in mouse assessed as effect on motor coordination at 10 mg/kg, ip by rotarod test; type: toxicity, organism-based; set-up: dose 10 mg/kg, route intraperitoneal; settings: in vivo

Row | Compound | Activity
41 | CC(=O)NC1CCN(C(=O)c2ccccc2)C1 (configuration not stated) | Non-toxic
42 | CCC(=O)N[C@@H]1CCN(S(=O)(=O)c2ccc(F)cc2)C1 | Non-toxic
43 | CCC(=O)NC1CCCN(S(=O)(=O)c2ccc(F)cc2)CCC1 | Non-toxic
44 | CCC(=O)NC1CCCN(S(=O)(=O)c2ccc(F)cc2)CC1 (configuration not stated) | Non-toxic
45 | CCC(=O)NC1CN(S(=O)(=O)c2ccc(F)cc2)C1 | Non-toxic

test system: Mus musculus; experiment: Nootropic activity against scopolamine-induced amnesia in mouse assessed as increase in latency time to enter dark room at 10 mg/kg, ip administered 20 mins prior to test by passive avoidance test (reference value: 91.7 sec); type: functional; settings: route intraperitoneal

Row | Compound | Time [s]
46 | CC(=O)NC1CCN(C(=O)c2ccccc2)C1 (configuration not stated) | 70.3
47 | CCC(=O)N[C@@H]1CCN(S(=O)(=O)c2ccc(F)cc2)C1 | 69.4
48 | CCC(=O)NC1CCCN(S(=O)(=O)c2ccc(F)cc2)CCC1 | 72.2
49 | CCC(=O)N1CCCC(NS(=O)(=O)c2ccc(F)cc2)CC1 (configuration not stated) | 81.4
50 | CCC(=O)NC1CCCN(S(=O)(=O)c2ccc(F)cc2)CC1 (configuration not stated) | 46.8
51 | CCC(=O)NC1CN(S(=O)(=O)c2ccc(F)cc2)C1 | 44.1

test system: Mus musculus; experiment: Nootropic activity against scopolamine-induced amnesia in mouse assessed as increase in latency time to enter dark room at 0.1 mg/kg, ip administered 20 mins prior to test by passive avoidance test (reference value: 91.7 sec); type: functional; settings: route intraperitoneal

Row | Compound | Time [s]
52 | CCC(=O)NC1CCN(S(=O)(=O)c2ccc(F)cc2)C1 (configuration not stated) | 48.8
